What was measured:
Type in all cases: functional, cell-based
[1] = target: Multidrug resistance protein 1a (Rattus norvegicus) (UniProt Q6PSM0); assay: TP_TRANSPORTER: increase in Doxorubicin intracellular accumulation (Doxorubicin: 17.2 uM, Azelastine: 30 uM) in C6 0.5 cells
[2] = target: T1, ATP-dependent translocase ABCB1 (Rattus norvegicus, UniProt P43245); assay: TP_TRANSPORTER: increase in Doxorubicin intracellular accumulation (Doxorubicin: 17.2 uM, Azelastine: 10 uM) in C6 1V cells
[3] = target: Multidrug resistance protein 1a (Rattus norvegicus) (UniProt Q6PSM0); assay: TP_TRANSPORTER: increase in Doxorubicin intracellular accumulation (Doxorubicin: 17.2 uM, Flezelastine: 10 uM) in C6 0.5 cells
[4] = target: T1, ATP-dependent translocase ABCB1; assay: TP_TRANSPORTER: increase in Doxorubicin intracellular accumulation (Doxorubicin: 17.2 uM, Flezelastine: 3 uM) in C6 1V cells

Chain of Multidrug resistance protein 1a (Rattus norvegicus) (Q6PSM0 as listed by the source): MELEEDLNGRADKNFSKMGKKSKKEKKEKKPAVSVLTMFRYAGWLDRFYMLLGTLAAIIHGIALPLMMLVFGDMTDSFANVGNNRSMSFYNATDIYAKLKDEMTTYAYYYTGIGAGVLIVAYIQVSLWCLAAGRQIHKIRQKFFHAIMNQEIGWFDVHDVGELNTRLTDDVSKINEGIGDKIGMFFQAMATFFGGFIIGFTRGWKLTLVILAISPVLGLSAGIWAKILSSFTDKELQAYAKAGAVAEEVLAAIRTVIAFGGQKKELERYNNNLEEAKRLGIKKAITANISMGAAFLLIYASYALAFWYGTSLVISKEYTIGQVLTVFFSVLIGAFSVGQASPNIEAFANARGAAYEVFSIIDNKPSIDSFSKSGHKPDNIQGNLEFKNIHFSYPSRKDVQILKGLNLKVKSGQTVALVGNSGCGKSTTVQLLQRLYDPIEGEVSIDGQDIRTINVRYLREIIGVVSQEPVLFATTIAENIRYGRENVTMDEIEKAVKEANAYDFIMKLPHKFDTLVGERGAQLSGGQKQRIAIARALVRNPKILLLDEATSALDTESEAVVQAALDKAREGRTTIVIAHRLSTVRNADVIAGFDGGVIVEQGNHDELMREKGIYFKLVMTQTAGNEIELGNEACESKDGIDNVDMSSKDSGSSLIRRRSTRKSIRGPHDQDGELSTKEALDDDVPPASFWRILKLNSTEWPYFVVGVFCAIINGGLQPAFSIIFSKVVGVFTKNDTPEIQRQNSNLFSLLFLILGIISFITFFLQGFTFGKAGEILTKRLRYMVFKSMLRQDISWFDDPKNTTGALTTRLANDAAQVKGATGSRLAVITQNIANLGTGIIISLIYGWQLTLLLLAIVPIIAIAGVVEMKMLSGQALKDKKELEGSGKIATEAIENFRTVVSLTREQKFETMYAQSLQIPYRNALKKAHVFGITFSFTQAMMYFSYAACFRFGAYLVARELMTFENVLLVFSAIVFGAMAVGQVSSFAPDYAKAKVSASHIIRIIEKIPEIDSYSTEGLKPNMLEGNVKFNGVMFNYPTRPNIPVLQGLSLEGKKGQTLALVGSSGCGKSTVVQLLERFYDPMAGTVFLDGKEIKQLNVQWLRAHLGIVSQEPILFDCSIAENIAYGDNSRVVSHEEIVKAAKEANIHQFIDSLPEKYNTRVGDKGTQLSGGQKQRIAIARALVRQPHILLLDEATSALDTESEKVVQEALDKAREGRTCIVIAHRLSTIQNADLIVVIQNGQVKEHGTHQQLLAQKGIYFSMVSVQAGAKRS
T1 sequence (P43245 whole entry): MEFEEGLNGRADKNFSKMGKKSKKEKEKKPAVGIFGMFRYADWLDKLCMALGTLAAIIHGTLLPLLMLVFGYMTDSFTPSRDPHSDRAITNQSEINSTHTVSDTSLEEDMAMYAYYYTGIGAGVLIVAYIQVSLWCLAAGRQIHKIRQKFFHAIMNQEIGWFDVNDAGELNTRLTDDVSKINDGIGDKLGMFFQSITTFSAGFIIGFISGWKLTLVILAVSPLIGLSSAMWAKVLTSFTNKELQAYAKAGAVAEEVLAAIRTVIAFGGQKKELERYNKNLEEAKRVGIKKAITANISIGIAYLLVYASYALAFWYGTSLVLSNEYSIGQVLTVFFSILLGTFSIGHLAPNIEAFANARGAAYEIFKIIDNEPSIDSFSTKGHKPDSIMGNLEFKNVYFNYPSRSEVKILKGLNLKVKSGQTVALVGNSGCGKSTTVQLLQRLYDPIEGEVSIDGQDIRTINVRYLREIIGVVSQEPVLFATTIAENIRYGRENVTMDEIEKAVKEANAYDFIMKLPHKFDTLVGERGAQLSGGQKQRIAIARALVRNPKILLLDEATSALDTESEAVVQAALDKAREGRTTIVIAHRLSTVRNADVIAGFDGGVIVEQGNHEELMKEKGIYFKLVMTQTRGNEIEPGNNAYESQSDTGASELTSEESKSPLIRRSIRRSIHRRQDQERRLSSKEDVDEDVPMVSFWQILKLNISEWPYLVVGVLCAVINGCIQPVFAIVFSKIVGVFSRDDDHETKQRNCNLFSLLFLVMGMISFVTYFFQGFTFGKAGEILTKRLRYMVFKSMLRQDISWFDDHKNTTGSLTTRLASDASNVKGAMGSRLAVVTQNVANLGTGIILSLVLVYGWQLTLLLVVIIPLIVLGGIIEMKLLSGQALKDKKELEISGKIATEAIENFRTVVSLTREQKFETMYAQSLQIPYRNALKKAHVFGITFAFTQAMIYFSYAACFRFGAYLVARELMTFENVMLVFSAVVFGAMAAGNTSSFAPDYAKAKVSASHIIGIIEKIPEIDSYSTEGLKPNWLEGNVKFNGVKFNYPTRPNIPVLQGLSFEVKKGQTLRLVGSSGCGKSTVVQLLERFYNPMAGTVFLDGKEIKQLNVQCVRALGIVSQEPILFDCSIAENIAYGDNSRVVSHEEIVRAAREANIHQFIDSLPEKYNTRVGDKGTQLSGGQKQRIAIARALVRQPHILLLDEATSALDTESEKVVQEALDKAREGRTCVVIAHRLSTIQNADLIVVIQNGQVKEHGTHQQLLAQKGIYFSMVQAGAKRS

| SMILES | Activity [1] | Activity [2] | Activity [3] | Activity [4] |
| --- | --- | --- | --- | --- |
| CN1CCCC(n2nc(Cc3ccc(Cl)cc3)c3ccccc3c2=O)CC1 (centres undefined) [AZELASTINE] | inhibitor [+] | inhibitor [+] | – | – |
| O=c1c2ccccc2c(Cc2ccc(F)cc2)nn1C1CCCN(CCc2ccccc2)CC1 (centres undefined) [FLEZELASTINE] | – | – | inhibitor [+] | inhibitor [+] |

Source: ChEMBL document CHEMBL2073885, “Azelastine and flezelastine as reversing agents of multidrug resistance: pharmacological and molecular studies” (Biochem Pharmacol, 1995)
